Assay results published in BigSolDB 2.1.

Cc1cc(Cl)cc(C(=O)O)c1N
solubility (mole fraction)
Details	278.15 K	283.15 K	288.15 K	293.15 K	298.15 K	303.15 K	308.15 K	313.15 K	318.15 K	323.15 K
in acetone	0.0119	0.0131	0.0152	0.0175	0.0199	0.0227	0.0266	0.0315	0.0371	0.0436
in acetonitrile	0.00122	0.00126	0.00139	0.00154	0.00173	0.00198	0.0023	0.0027	0.00331	0.00423
in ethanol	0.00708	0.00736	0.00758	0.00807	0.00867	0.00934	0.0103	0.0114	0.0129	0.0144
in ethyl acetate	0.00636	0.0067	0.0071	0.00769	0.00829	0.00933	0.0105	0.012	0.0138	0.0162
in isopropanol	0.00728	0.00744	0.0077	0.00809	0.00856	0.00911	0.00977	0.0105	0.0114	0.0123
in methanol	0.00128	0.00157	0.00199	0.00241	0.00305	0.00375	0.00452	0.00556	0.00672	0.00815
in n-butanol	0.00553	0.0057	0.00609	0.00648	0.00729	0.0082	0.00931	0.0109	0.0131	0.016
in n-hexane	0.000105	0.000166	0.000245	0.000343	0.000443	0.000558	0.000685	0.000821	0.000959	0.00113
in n-propanol	0.00516	0.00552	0.00579	0.00646	0.0072	0.00803	0.00936	0.0109	0.0128	0.0153
